What was measured:
huCD34+ cells = assay: Colony formation assay of huCD34+ cells; assay type: cell-based, human; conditions: 100 nM, 14 days
Experimental: Human hematopoietic progenitor CD34+ cells (healthy donor) were plated into a standard colony formation assay in the presence of compound 4 (100 nM), vehicle (0.1% DMSO), or nothing. After 14 days, hematopoietic colonies were enumerated (CFU-E, […], CFU-GM, and CFU-GEMM). The plates containing compound 4 had 17% more colony forming units than vehicle alone. (Total colony counts were: untreated, 106.5; vehicle-treated, 103.5; compound 4-treated, 121.5)

telomerase [1] = biological target: T1, telomerase (Mus musculus, UniProt O70372); assay: Telomerase activity in short-term liquid culture, lineage-depleted bone marrow cells from wild type mice; assay type: cell-based; conditions: 100 nM and 1 uM, three days
T1 construct: endogenous in cells; host or cells: lineage-depleted bone marrow cells, wild-type mice
T1 sequence (O70372 1-1122): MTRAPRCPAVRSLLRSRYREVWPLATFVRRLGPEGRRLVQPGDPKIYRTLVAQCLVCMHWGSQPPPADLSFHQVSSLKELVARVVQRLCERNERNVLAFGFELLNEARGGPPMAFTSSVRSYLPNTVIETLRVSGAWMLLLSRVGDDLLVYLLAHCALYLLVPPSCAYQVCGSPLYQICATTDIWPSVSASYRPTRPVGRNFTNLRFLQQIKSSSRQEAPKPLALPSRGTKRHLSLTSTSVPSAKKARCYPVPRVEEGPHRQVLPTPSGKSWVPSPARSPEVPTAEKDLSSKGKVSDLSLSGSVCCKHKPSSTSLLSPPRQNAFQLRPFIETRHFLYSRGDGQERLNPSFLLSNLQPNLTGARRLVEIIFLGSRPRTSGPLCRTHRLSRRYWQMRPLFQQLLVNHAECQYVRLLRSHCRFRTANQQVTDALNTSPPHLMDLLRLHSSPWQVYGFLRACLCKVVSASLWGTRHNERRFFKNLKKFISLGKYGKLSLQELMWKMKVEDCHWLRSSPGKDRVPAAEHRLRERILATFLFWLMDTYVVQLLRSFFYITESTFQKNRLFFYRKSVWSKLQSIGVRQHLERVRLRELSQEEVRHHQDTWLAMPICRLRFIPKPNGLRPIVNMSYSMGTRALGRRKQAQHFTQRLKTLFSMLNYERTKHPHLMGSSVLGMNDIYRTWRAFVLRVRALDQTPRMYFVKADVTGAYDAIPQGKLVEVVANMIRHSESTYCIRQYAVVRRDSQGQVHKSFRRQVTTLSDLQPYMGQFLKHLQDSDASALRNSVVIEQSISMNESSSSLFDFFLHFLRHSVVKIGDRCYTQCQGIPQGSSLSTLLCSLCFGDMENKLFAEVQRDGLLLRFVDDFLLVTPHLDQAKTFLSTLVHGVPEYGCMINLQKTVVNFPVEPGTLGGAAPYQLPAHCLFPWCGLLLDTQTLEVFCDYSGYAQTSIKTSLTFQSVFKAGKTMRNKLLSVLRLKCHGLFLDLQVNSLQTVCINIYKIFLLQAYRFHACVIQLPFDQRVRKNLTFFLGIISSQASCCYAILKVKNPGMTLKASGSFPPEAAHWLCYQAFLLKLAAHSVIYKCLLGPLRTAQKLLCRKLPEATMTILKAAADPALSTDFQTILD
Experimental: Lineage-depleted bone marrow cells from mTERT heterozygous and wild type mice were grown in IMDM+15% FBS containing stem cell factor (Kitl), IL-3, and IL-11 for three days in the presence of compound 4 (1 uM, 100 nM, or 10 nM), vehicle (0.1% DMSO), or nothing. Telomerase activity in the wild-type cells increased by 40-50% when treated with 100 nM and 1 uM compound 4, relative to the vehicle-treated control.

telomerase [2] = biological target: telomerase (Homo sapiens, UniProt O14746); assay: Telomerase activation in short-term liquid culture of human bone marrow-derived CD34+ hematopoietic progenitor cells (gel-TRAP); assay type: cell-based; conditions: huCD34+ cells, 100 nM, 3 days
Experimental: Human bone marrow-derived CD34+ hematopoietic progenitor cells were obtained from a healthy donor.
Human bone marrow-derived CD34+ hematopoietic progenitor cells were grown in Iscove's Modified Dulbecco's Medium (IMDM) (Invitrogen, CA)+10% fetal bovine serum (FBS) for 3 days in the presence of compound 4 (1 uM, 100 nM, 10 nM), vehicle (1% DMSO), or nothing. Telomerase activity increased by ˜60-70% in the 100 nM compound 4 sample relative to the vehicle control (as assessed by traditional gel-TRAP assay).

[3] = system: Matrigel plugs; bone marrow stem/progenitor cells; assay: Administration to aging Tert (+/-) mice: hemoglobin and total RNA in Matrigel plugs, number of bone marrow stem/progenitor cells; assay type: in vivo, Tert (+/-) mice on a C57BL/6 background; conditions: 10 mg/kg/day PO (BID)
Experimental: Aging Tert (+/−) mice on a C57BL/6 background (8-9 months) were dosed with compound 4 at 10 mg/kg/day PO (BID) in 2% ethanol. Mice were pre-dosed for 1 day (Day −1). Matrigel™ was injected subcutaneously in the abdomen on Day 0, and plugs were harvested on Day 12.
One half of the plug was analyzed for telomerase activity and hemoglobin content, which is indicative of blood vessel formation (RBC cell buffer extraction, followed by M-PER extraction). The other half of the plug was processed for histology.
The Matrigel™ plug has a 1.2-fold increase in hemoglobin levels (p<0.2) n=15/group for mice treated with compound 4.
Total RNA, which reflects cell number, was increased 1.5-fold (p<0.1) n−15/group in Matrigel™ plugs after treatment with compound 4.
Bone marrow stem and progenitor cells were purified using lineage depletion magnetic sorting technology (Miltenyi MACS columns).
The number of purified bone marrow stem/progenitor cells increased 1.5-fold (p<0.1) n=6/group in mice treated with compound 4.

Chain of telomerase (Homo sapiens, UniProt O14746) (O14746 whole entry): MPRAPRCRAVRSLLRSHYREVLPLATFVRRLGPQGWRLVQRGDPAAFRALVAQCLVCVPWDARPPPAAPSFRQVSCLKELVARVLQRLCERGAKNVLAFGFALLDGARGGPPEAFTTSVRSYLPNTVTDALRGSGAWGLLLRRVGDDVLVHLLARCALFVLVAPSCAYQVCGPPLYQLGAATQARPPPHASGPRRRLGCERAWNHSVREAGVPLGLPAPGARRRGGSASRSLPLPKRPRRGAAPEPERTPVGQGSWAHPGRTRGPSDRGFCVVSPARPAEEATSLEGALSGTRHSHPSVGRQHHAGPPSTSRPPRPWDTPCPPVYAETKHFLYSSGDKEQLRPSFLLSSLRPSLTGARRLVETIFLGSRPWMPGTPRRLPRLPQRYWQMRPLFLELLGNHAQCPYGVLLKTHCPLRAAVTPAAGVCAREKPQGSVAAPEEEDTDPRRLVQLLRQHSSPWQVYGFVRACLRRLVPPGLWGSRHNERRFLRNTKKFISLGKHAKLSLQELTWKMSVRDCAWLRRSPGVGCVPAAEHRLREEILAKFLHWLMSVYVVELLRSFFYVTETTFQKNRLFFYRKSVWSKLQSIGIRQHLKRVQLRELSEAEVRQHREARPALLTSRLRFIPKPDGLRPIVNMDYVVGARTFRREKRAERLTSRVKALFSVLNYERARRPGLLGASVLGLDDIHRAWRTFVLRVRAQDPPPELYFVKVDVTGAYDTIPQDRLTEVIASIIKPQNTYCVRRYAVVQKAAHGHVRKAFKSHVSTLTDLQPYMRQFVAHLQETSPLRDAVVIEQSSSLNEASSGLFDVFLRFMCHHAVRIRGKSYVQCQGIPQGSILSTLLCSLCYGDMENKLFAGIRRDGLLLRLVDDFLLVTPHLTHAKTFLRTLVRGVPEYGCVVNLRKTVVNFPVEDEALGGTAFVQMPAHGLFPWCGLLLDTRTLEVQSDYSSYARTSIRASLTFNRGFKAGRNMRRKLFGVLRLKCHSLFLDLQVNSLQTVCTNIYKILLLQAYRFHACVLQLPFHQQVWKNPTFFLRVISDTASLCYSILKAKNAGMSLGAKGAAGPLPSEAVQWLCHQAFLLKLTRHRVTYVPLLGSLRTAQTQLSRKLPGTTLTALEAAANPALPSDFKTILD

CC(C)C(N)C(=O)OC1CCC23CC24CCC2(C)C(C5(C)CCC(C(C)(C)O)O5)C(O)CC2(C)C4CC(O)C3C1(C)C (stereo not drawn) [Compound 4, 2-(L)-Amino-3-methyl-butyric acid 6α,16β-dihydroxy-17-[5-(1-hydroxy-1-methyl-ethyl)-2-methyl-tetrahydro-furan-2-yl]-4,4,13,14-tetramethyl-tetradecahydro-cyclopropa[9,10]cyclopenta[a]phenanthren-3β-yl ester]
BFU-E colonies (huCD34+ cells): 25.5 | CFU-E colonies (huCD34+ cells): 11 | CFU-GEMM colonies (huCD34+ cells): 5 | CFU-GM colonies (huCD34+ cells): 80 | Total colony counts (huCD34+ cells): 121.5 | more colony forming units than vehicle alone (huCD34+ cells): 17% | Telomerase activity increase relative to the vehicle-treated control (telomerase [1]): 40-50% | Telomerase activity increase relative to the vehicle control (telomerase [2]): 60-70% | Total RNA (reflects cell number) increase in Matrigel plugs ([3]; p<0.1): 1.5 fold | increase in number of purified bone marrow stem/progenitor cells ([3]; p<0.1): 1.5 fold | increase in hemoglobin levels in the Matrigel plug ([3]; p<0.2): 1.2 fold

From patent US9403866B2, “Compositions and methods for increasing telomerase activity” (Telomerase Activation Sciences, Inc., priority 2009, dated 2016)
